From patent US11407736B2 (priority 2019, dated 2022)
pIC50: −log10 of the molar value. Like-named read-outs stand apart in the source and are kept apart here.

Experiments:
[1] = system: U937 cells; test: U937 cell necroptosis assay (TNFa + zVAD, CellTiter-Glo); assay type: cell-based, human; details: TNFa + zVAD, read-out: U937 Zvad TNF CTG Recovery, U937, TNFa + zVAD (IC50)
In short: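 Human U937 and murine L929 cells in RPMI 1640/10% FBS were pre-incubated 1 h at 37 °C with serially diluted compound plus zVAD-fmk (U937 plated with 60 uM, L929 medium with 40 uM), then stimulated with 2 ng/mL TNFa (final). Viability read by CellTiter-Glo luminescence after 18 h.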

[2] = system: L929 cells; test: L929 cell necroptosis assay (TNFa + zVAD, CellTiter-Glo); assay type: cell-based, murine; details: TNFa + zVAD, read-out: L929-CTG-recovery, L929, TNFa + zVAD (IC50)
In short: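 Murine L929 cells, plated 18 h beforehand at 10K cells/well in RPMI 1640 with 10% FBS, were switched to medium containing 40 uM zVAD-fmk and given compound from 4-fold serial dilutions. Viability after 18 h of TNFa stimulation at 37° C was read by CellTiter-Glo luminescence.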

[3] = molecular target: RIPK1 (Homo sapiens (Human), UniProt Q13546); test: RIPK1 ADP-Glo biochemical kinase assay
Method: The final reaction volume was 5.0ul.
Adding 5 μl of ADP-Glo™ terminated the reaction.

[4] = Homo sapiens, U-937, U937 cells
[5] = read-out: RIPK1 ADP-Glo Kinase (IC50)

RIPK1, sequence (Q13546 whole entry, species assumed): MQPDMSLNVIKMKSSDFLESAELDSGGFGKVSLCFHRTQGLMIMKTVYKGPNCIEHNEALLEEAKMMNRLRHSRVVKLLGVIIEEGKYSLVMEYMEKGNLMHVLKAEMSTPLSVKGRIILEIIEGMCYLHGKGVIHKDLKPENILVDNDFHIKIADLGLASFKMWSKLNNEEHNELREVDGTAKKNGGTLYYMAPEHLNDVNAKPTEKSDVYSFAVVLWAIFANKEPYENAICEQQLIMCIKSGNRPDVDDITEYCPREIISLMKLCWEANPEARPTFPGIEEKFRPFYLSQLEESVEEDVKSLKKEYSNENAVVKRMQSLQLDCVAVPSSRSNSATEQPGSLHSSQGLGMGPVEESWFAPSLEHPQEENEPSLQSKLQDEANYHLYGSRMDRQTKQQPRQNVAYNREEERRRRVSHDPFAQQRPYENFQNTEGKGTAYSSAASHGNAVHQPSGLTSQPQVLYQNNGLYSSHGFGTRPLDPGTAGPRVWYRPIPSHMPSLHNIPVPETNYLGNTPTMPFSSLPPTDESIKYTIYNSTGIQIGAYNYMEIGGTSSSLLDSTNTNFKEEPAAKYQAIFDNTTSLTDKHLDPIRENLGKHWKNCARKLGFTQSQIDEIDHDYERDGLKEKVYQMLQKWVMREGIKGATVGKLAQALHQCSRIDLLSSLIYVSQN

| SMILES | pIC50 [1, 4] | pIC50 ([2]; Mus musculus, L929, L929 cells) | pIC50 [3, 5] | pIC50 [3] | pIC50 ([1]; U937 cells) | pIC50 ([2]; L929 cells) |
| --- | --- | --- | --- | --- | --- | --- |
| CN1C(=O)[C@@H](NC(=O)c2ncn(Cc3c(Cl)cccc3Cl)n2)COc2ccc(CN3CCN(c4ccncc4)CC3)cc21 [Compound I-21, (S)-1-(2,6-dichlorobenzyl)-N-(5-methyl-4-oxo-7-((4-(pyridin-4-yl)piperazin-1-yl)methyl)-2,3,4,5-tetrahydrobenzo[b][1,4]oxazepin-3-yl)-1H-1,2,4-triazole-3-carboxamide] | 8.60 | 5.88 | 7.11 | – | – | – |
| CN1C(=O)[C@@H](NC(=O)c2n[nH]c(Cc3ccccc3)n2)COc2ccc(/C=C/C(=O)N3CCCC3)cc21 [Compound I-22, (S,E)-5-benzyl-N-(5-methyl-4-oxo-7-(3-oxo-3-(pyrrolidin-1-yl)prop-1-en-1-yl)-2,3,4,5-tetrahydrobenzo[b][1,4]oxazepin-3-yl)-1H-1,2,4-triazole-3-carboxamide] | 8.32 | 5.47 | 7.32 | – | – | – |
| CN1C(=O)[C@@H](NC(=O)c2n[nH]c(Cc3ccccc3)n2)COc2ccc(/C=C/C(=O)NC3CC3)cc21 [Compound I-23, (S,E)-5-benzyl-N-(7-(3-(cyclopropylamino)-3-oxoprop-1-en-1-yl)-5-methyl-4-oxo-2,3,4,5-tetrahydrobenzo[b][1,4]oxazepin-3-yl)-1H-1,2,4-triazole-3-carboxamide] | 8.17 | 4.84 | 7.45 | – | – | – |
| CN1C(=O)[C@@H](NC(=O)c2n[nH]c(Cc3ccccc3)n2)COc2ccc(CN3CCn4ncnc4C3)cc21 [Compound I-24, (S)-5-benzyl-N-(7-((5,6-dihydro-[1,2,4]triazolo[1,5-a]pyrazin-7(8H)-yl)methyl)-5-methyl-4-oxo-2,3,4,5-tetrahydrobenzo[b][1,4]oxazepin-3-yl)-1H-1,2,4-triazole-3-carboxamide] | 8.44 | 5.34 | 7.23 | – | – | – |
| CN1C(=O)[C@@H](NC(=O)c2ncn(Cc3ccccc3)n2)COc2ccc(CN3CCn4ncnc4C3)cc21 [Compound I-25, (S)-1-benzyl-N-(7-((5,6-dihydro-[1,2,4]triazolo[1,5-a]pyrazin-7(8H)-yl)methyl)-5-methyl-4-oxo-2,3,4,5-tetrahydrobenzo[b][1,4]oxazepin-3-yl)-1H-1,2,4-triazole-3-carboxamide] | 8.57 | 6.31 | 7.29 | – | – | – |
| CN1C(=O)[C@@H](NC(=O)c2ncn(Cc3ccccc3)n2)COc2ccc(CCC(=O)NC3CC3)cc21 [Compound I-26, (S)-1-benzyl-N-(7-(3-(cyclopropylamino)-3-oxopropyl)-5-methyl-4-oxo-2,3,4,5-tetrahydrobenzo[b][1,4]oxazepin-3-yl)-1H-1,2,4-triazole-3-carboxamide] | 8.36 | 6.21 | 7.18 | – | – | – |
| CN1C(=O)[C@@H](NC(=O)c2n[nH]c(Cc3ccccc3)n2)COc2ccc(CCC(C)(C)O)cc21 [Compound I-28, (S)-5-benzyl-N-(7-(3-hydroxy-3-methylbutyl)-5-methyl-4-oxo-2,3,4,5-tetrahydrobenzo[b][1,4]oxazepin-3-yl)-1H-1,2,4-triazole-3-carboxamide] | 8.27 | 6.17 | 7.43 | – | – | – |
| CN1C(=O)[C@@H](NC(=O)c2ncn(Cc3ccccc3)n2)COc2ccc(C#CC(C)(C)O)cc21 [Compound I-29, (S)-1-benzyl-N-(7-(3-hydroxy-3-methylbut-1-yn-1-yl)-5-methyl-4-oxo-2,3,4,5-tetrahydrobenzo[b][1,4]oxazepin-3-yl)-1H-1,2,4-triazole-3-carboxamide] | 8.64 | 8.06 | 7.91 | – | – | – |
| CN1C(=O)[C@@H](NC(=O)c2n[nH]c(Cc3ccccc3)n2)COc2ccc(C#CC(C)(C)O)cc21 [Compound I-30, (S)-5-benzyl-N-(7-(3-hydroxy-3-methylbut-1-yn-1-yl)-5-methyl-4-oxo-2,3,4,5-tetrahydrobenzo[b][1,4]oxazepin-3-yl)-1H-1,2,4-triazole-3-carboxamide] | 8.44 | 7.14 | – | 7.40 | – | – |
| CN1C(=O)[C@@H](NC(=O)c2ncn(Cc3ccccc3)n2)COc2ccc(CCC(N)=O)cc21 [Compound I-32, (S)—N-(7-(3-amino-3-oxopropyl)-5-methyl-4-oxo-2,3,4,5-tetrahydrobenzo[b][1,4]oxazepin-3-yl)-1-benzyl-1H-1,2,4-triazole-3-carboxamide] | 8.57 | 4.75 | 7.66 | – | – | – |
| CN1C(=O)[C@@H](NC(=O)c2ncn(Cc3ccccc3)n2)COc2ccc(CCC(=O)N3CCCC3)cc21 [Compound I-33, (S)-1-benzyl-N-(5-methyl-4-oxo-7-(3-oxo-3-(pyrrolidin-1-yl)propyl)-2,3,4,5-tetrahydrobenzo[b][1,4]oxazepin-3-yl)-1H-1,2,4-triazole-3-carboxamide] | 8.82 | 5.91 | 7.84 | – | – | – |
| CN1C(=O)[C@@H](NC(=O)c2n[nH]c(Cc3ccc(F)cc3F)n2)COc2ccc(CCC(=O)N3CCCC3)cc21 [Compound I-34, (S)-5-(2,4-difluorobenzyl)-N-(5-methyl-4-oxo-7-(3-oxo-3-(pyrrolidin-1-yl)propyl)-2,3,4,5-tetrahydrobenzo[b][1,4]oxazepin-3-yl)-1H-1,2,4-triazole-3-carboxamide] | 7.65 | 5.02 | 7.31 | – | – | – |
| CN1C(=O)[C@@H](NC(=O)c2n[nH]c(Cc3ccccc3)n2)COc2ccc(C#CCCCO)cc21 [Compound I-35, (S)-5-benzyl-N-(7-(5-hydroxypent-1-yn-1-yl)-5-methyl-4-oxo-2,3,4,5-tetrahydrobenzo[b][1,4]oxazepin-3-yl)-1H-1,2,4-triazole-3-carboxamide] | 8.51 | 7.75 | 7.65 | – | – | – |
| CN1C(=O)[C@@H](NC(=O)c2n[nH]c(Cc3ccccc3)n2)COc2ccc(C#CC(C)(C)O)cc21 [Compound I-36, (S)-5-benzyl-3-((7-(3-hydroxy-3-methylbut-1-yn-1-yl)-5-methyl-4-oxo-2,3,4,5-tetrahydrobenzo[b][1,4]oxazepin-3-yl)carbamoyl)-1,2,4-triazol-1-ide] | – | – | 7.47 | – | 8.66 | 8.85 |
| CN1C(=O)[C@@H](NC(=O)c2ncn(Cc3ccccc3)n2)COc2ccc(C#CCCOc3ccc4ncccc4c3)cc21 [Compound I-37, (S)-1-benzyl-N-(5-methyl-4-oxo-7-(4-(quinolin-6-yloxy)but-1-yn-1-yl)-2,3,4,5-tetrahydrobenzo[b][1,4]oxazepin-3-yl)-1H-1,2,4-triazole-3-carboxamide] | 9.00 | 9.70 | 7.25 | – | – | – |
| CN1C(=O)[C@@H](NC(=O)c2n[nH]c(Cc3ccccc3)n2)COc2ccc(C#CCCOc3ccc4ncccc4c3)cc21 [Compound I-38, (S)-5-benzyl-N-(5-methyl-4-oxo-7-(4-(quinolin-6-yloxy)but-1-yn-1-yl)-2,3,4,5-tetrahydrobenzo[b][1,4]oxazepin-3-yl)-1H-1,2,4-triazole-3-carboxamide] | 8.44 | 9.30 | 7.17 | – | – | – |
| CN1C(=O)[C@@H](NC(=O)c2ncn(Cc3ccccc3)n2)COc2ccc(CN3CCn4nc(C(F)(F)F)nc4C3)cc21 [Compound I-39, (S)-1-benzyl-N-(5-methyl-4-oxo-7-((2-(trifluoromethyl)-5,6-dihydro-[1,2,4]triazolo[1,5-a]pyrazin-7(8H)-yl)methyl)-2,3,4,5-tetrahydrobenzo[b][1,4]oxazepin-3-yl)-1H-1,2,4-triazole-3-carboxamide] | 8.57 | 9.40 | 7.44 | – | – | – |
| CN1C(=O)[C@@H](NC(=O)c2n[nH]c(Cc3ccccc3)n2)COc2ccc(CN3CCn4nc(C(F)(F)F)nc4C3)cc21 [Compound I-40, (S)-5-benzyl-N-(5-methyl-4-oxo-7-((2-(trifluoromethyl)-5,6-dihydro-[1,2,4]triazolo[1,5-a]pyrazin-7(8H)-yl)methyl)-2,3,4,5-tetrahydrobenzo[b][1,4]oxazepin-3-yl)-1H-1,2,4-triazole-3-carboxamide] | 8.64 | 9.52 | 7.05 | – | – | – |
| CN1C(=O)[C@@H](NC(=O)c2n[nH]c(Cc3ccccc3)n2)COc2ccc(C#CCCOc3ccc4cccnc4c3)cc21 [Compound I-41, (S)-5-benzyl-N-(5-methyl-4-oxo-7-(4-(quinolin-7-yloxy)but-1-yn-1-yl)-2,3,4,5-tetrahydrobenzo[b][1,4]oxazepin-3-yl)-1H-1,2,4-triazole-3-carboxamide] | 8.28 | 8.80 | 7.10 | – | – | – |
| CN1C(=O)[C@@H](NC(=O)c2ncn(Cc3ccccc3)n2)COc2ccc(C#CCCOc3ccc4cccnc4c3)cc21 [Compound I-42, (S)-1-benzyl-N-(5-methyl-4-oxo-7-(4-(quinolin-7-yloxy)but-1-yn-1-yl)-2,3,4,5-tetrahydrobenzo[b][1,4]oxazepin-3-yl)-1H-1,2,4-triazole-3-carboxamide] | 8.48 | 8.92 | 7.32 | – | – | – |
| CN1C(=O)[C@@H](NC(=O)c2n[nH]c(Cc3ccc(F)cc3F)n2)COc2ccc(C#CC(C)(C)O)cc21 [Compound I-43, (S)-5-(2,4-difluorobenzyl)-N-(7-(3-hydroxy-3-methylbut-1-yn-1-yl)-5-methyl-4-oxo-2,3,4,5-tetrahydrobenzo[b][1,4]oxazepin-3-yl)-1H-1,2,4-triazole-3-carboxamide] | 8.42 | 9.05 | 7.07 | – | – | – |
